This note sets out measurements from patent US20090326029A1, “NON-CYCLIC SUBSTITUTED BENZIMIDAZOLE THIOPHENE BENZYL ETHER COMPOUNDS” (priority 2006, published 2009).

Counter-ions that a name gives are not always drawn.

The target in one experiment is T1, PLK1 kinase domain (Homo sapiens, UniProt P53350).
T1 construct: 6xHis (leader MKKGHHHHHHD) (N); made in house; host or cells: baculovirus infected T. ni cells
The experiment can be described thus: Assay for Inhibition of PLK1 (SPA kinase assay). The class given is biochemical. The settings on record: 2 nM PLK1 kinase domain, 1 μM ATP, 1 μM substrate peptide, 22° C.; read-out: PLK1 pIC50 (converted). Here is the method: 6× N-terminal His-tagged PLK kinase domain (amino acids 21-346 preceded by MKKGHHHHHHD) SEQ ID: No. 1. was prepared from baculovirus infected T. ni cells under polyhedrin promoter control. All procedures were performed at 4° C. Cells were lysed in 50 mM HEPES, 200 mM NaCl, 50 mM imidazole, 5% glycerol; pH 7.5. The homogenate was centrifuged at 14K rpm in a SLA-1500 rotor for 1 hr and the supernatant filtered through a 1.2 micron filter. The supernatant was loaded onto a Nickel chelating Sepharose (Amersham Pharmacia) column and washed with lysis buffer. Protein was eluted using 20%, 30% and 100% buffer B steps where buffer B was 50 mM HEPES, 200 mM NaCl, 300 mM imidazole, 5% glycerol; pH 7.5. Fractions containing PLK were determined by SDS-PAGE. Fractions containing PLK were diluted five-fold with 50 mM HEPES, 1 mM DTT, 5% glycerol; pH 7.5, then loaded on an SP Sepharose (Amersham Pharmacia) column. After washing the column with 50 mM HEPES, 1 mM DTT, 5% glycerol; pH 7.5, PLK was step eluted with 50 mM HEPES, 1 mM DTT, 500 mM NaCl; 5% glycerol; pH 7.5. PLK was concentrated using a 10 kDa molecular weight cutoff membrane and then loaded onto a Superdex 200 gel filtration (Amersham Pharmacia) column equilibrated in 25 mM HEPES, 1 mM DTT, 500 mM NaCl, 5% glycerol; pH 7.5. Fractions containing PLK were determined by SDS-PAGE. PLK was pooled, aliquoted and stored at −80° C. Samples were quality controlled using mass spectrometry, N-terminal sequencing and amino acid analysis.
All measurements were obtained under conditions where signal production increased linearly with time and enzyme. Test compounds were added to white 384-well assay plates (0.1 μL for 10 μL and some 20 μL assays, 1 μL for some 20 μL assays) at variable known concentrations in 100% DMSO. DMSO (I-5% final, as appropriate) and EDTA (65 mM in reaction) were used as controls. Reaction Mix was prepared as follows at 22° C.: • 25 mM HEPES, pH 7.2 • 15 mM MgCl2 • 1 μM ATP • 0.05 μCi/well ^33P-γ ATP (10 Ci/mMol) • 1 μM substrate peptide (Biotin-Ahx-SFNDTLDFD) SEQ ID: No. 2. • 0.15 mg/mL BSA • 1 mM DTT • 2 nM PLK1 kinase domain (added last)
Reaction Mix (10 or 20 μL) was quickly added to each well immediately following addition of enzyme via automated liquid handlers and incubated 1-1.5 h at 22° C. The 20 μL enzymatic reactions were stopped with 50 μL of stop mix (50 mM EDTA, 4.0 mg/mL Streptavidin SPA beads in Standard Dulbecco's PBS (without Mg^2+ and Ca^2+), 50 μM ATP) per well. The 10 μL reactions were stopped with 10 μL of stop mix (50 mM EDTA, 3.0 mg/mL Streptavidin-coupled SPA Imaging Beads (“LeadSeeker”) in Standard Dulbecco's PBS (without Mg^2+ and Ca^2+), 50 μM ATP) per well. Plates were sealed with clear plastic seals, spun at 500×g for 1 min or settled overnight, and counted in Packard TopCount for 30 seconds/well (regular SPA) or imaged using a Viewlux imager (LeadSeeker SPA). Signal above background (EDTA controls) was converted to percent inhibition relative to that obtained in control (DMSO-only) wells.

In another experiment the test system is HCT116. The experiment can be described thus: Inhibition of Cell Proliferation (methylene blue or CellTiter-Glo). The class given is cell-based. Conditions: Homo sapiens, HCT-116; HCT116 cell growth, seventy two hours post-treatment, 10% fetal bovine serum. Here is the method:
Exponentially growing cell lines of different tumor origins, cultured in appropriate media containing 10% fetal bovine serum at 37° C. in a 5% CO2 incubator were plated at low density (less than 2000 cells/well) in 96-well plates. Twenty four hours post-plating, cells were treated with different concentrations of test compounds ranging from 10 uM to 0.04 nM. Several wells were left untreated as a control. Seventy two hours post-treatment, cell numbers were determined using different techniques; 100 μl per well of methylene blue (Sigma M9140) (0.5% in 50:50 Ethanol:water), or 50-100 ul per well of CellTiter-Glo (Promega #G7573). For methylene blue staining, stain was incubated at room temperature for 30 minutes before plates were rinsed and dye solubilized in 1% N-lauroyl sarcosine, sodium salt, (Sigma L5125, in PBS). Plates were read on a microplate reader, measuring the OD at 620 nm. For CellTiter-Glo, plates were incubated at room temperature for 15 minutes and the chemiluminescent signal was read on the Victor V or Envison 2100 reader.
Percent inhibition of cell growth was expressed as percent proliferation relative to 100% proliferation (control). Concentration of test compound that inhibited 50% of cell growth (IC50) was determined by 4 parameter fit of data using XLfit, (value of no cell control was substracted from all samples for background). The data are shown in Table 1 and Table 2 below and represent a compilation of several different experiments each performed using the general parameters outlined above, although minor variations may have been employed in some instances. In Table 1 and Table 2, +=IC50>1+M; ++=IC50 0.5-1 μM: +++=IC50<0.5 μM.

T1 sequence (P53350 21-346): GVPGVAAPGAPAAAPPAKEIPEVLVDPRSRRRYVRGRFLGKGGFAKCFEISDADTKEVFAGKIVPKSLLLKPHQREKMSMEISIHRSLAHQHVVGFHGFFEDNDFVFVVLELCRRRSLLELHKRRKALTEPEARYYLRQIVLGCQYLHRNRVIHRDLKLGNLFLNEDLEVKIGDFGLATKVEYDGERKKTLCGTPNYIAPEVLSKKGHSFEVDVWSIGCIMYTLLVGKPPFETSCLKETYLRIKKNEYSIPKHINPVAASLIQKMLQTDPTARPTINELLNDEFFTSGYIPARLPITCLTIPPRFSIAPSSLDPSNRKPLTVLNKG

`COc1cc2ncn(-c3cc(O[C@H](C)c4cc(C(=O)NCCN(C)C)ccc4Cl)c(C(N)=O)s3)c2cc1OC` [Example 1, 5-[5,6-Bis(methyloxy)-1H-benzimidazol-1-yl]-3-({(1R)-1-[2-chloro-5-({[2-(dimethylamino)ethyl]amino}carbonyl)phenyl]ethyl}oxy)-2-thiophenecarboxamide formate]: the IC50 on PLK1 kinase domain is 100 to 1000 nM.

`COc1cc2ncn(-c3cc(O[C@H](C)c4cccc(NCCO)c4Cl)c(C(N)=O)s3)c2cc1OC` [Example 2, 5-[5,6-Bis(methyloxy)-1H-benzimidazol-1-yl]-3-[((1R)-1-{2-chloro-3-[(2-hydroxyethyl)amino]phenyl}ethyl)oxy]-2-thiophenecarboxamide] had an IC50 in the experiment on HCT116 of under 500 nM.

For `COc1cc2ncn(-c3cc(O[C@H](C)c4cccc(OCCN)c4Cl)c(C(N)=O)s3)c2cc1OC` [Example 3, 3-[((1R)-1-{3-[(2-aminoethyl)oxy]-2-chlorophenyl}ethyl)oxy]-5-[5,6-bis(methyloxy)-1H-benzimidazol-1-yl]-2-thiophenecarboxamide], the IC50 was under 100 nM at PLK1 kinase domain and under 500 nM with HCT116. For `C[C@@H](Oc1cc(-n2cnc3ccccc32)sc1C(N)=O)c1cccc(OCCN)c1Cl` [Example 4, 3-[((1R)-1-{3-[(2-Aminoethyl)oxy]-2-chlorophenyl}ethyl)oxy]-5-(1H-benzimidazol-1-yl)-2-thiophenecarboxamide], the IC50 on PLK1 kinase domain is under 100 nM; with HCT116, under 500 nM. Turning to `C[C@@H](Oc1cc(-n2cnc3cc(-c4cnn(C)c4)ccc32)sc1C(N)=O)c1cccc(OCCCO)c1Cl` [Example 5], the IC50 was under 100 nM at PLK1 kinase domain and under 500 nM in the experiment on HCT116.

As for `C[C@@H](Oc1cc(-n2cnc3cc(-c4cnn(C)c4)ccc32)sc1C(N)=O)c1cccc(OCCO)c1Cl` [Example 6, 3-[((1R)-1-{2-chloro-3-[(2-hydroxyethyl)oxy]phenyl}ethyl)oxy]-5-[5-(1-methyl-1H-pyrazol-4-yl)-1H-benzimidazol-1-yl]-2-thiophenecarboxamide], the IC50 on PLK1 kinase domain was under 100 nM; in the experiment on HCT116 it was under 500 nM.

Regarding `C[C@@H](Oc1cc(-n2cnc3cc(-c4cnn(C)c4)ccc32)sc1C(N)=O)c1cccc(OCCN)c1Cl` [Example 7, 3-[((1R)-1-{3-[(2-aminoethyl)oxy]-2-chlorophenyl}ethyl)oxy]-5-[5-(1-methyl-1H-pyrazol-4-yl)-1H-benzimidazol-1-yl]-2-thiophenecarboxamide hydrochloride], the IC50 on PLK1 kinase domain was under 100 nM; in the experiment on HCT116, under 500 nM.

For `C[C@@H](Oc1cc(-n2cnc3cc(-c4cnn(C)c4)ccc32)sc1C(N)=O)c1cccc(OCCN(C)C)c1Cl` [Example 8, 3-{[(1R)-1-(2-chloro-3-{[2-(dimethylamino)ethyl]oxy}phenyl)ethyl]oxy}-5-[5-(1-methyl-1H-pyrazol-4-yl)-1H-benzimidazol-1-yl]-2-thiophenecarboxamide], the IC50 is under 100 nM at PLK1 kinase domain and under 500 nM with HCT116.

As for `C[C@@H](Oc1cc(-n2cnc3cc(-c4cnn(C)c4)ccc32)sc1C(N)=O)c1cccc(OCCCN(C)C)c1Cl` [Example 9, 3-{[(1R)-1-(2-chloro-3-{[3-(dimethylamino)propyl]oxy}phenyl)ethyl]oxy}-5-[5-(1-methyl-1H-pyrazol-4-yl)-1H-benzimidazol-1-yl]-2-thiophenecarboxamide], the IC50 is under 100 nM on PLK1 kinase domain and under 500 nM in the experiment with HCT116.
